Entries after “also recorded” stand apart in the source; their conditions may differ.
Tests used:
[1] = target: E. coli Tat machinery (IMVs containing overproduced TatABC) (Escherichia coli, UniProt P69423+P69425+P69428); assay: In vitro Tat transport assay of pre-SufI into IMVs, NADH as energy source; assay type: biochemical; settings: for effect on in vitro E. coli Tat transport: 90 nM pre-SufI, NADH, with and without 2.5 mM DTT; for outcome of NADH-dependent in vitro Tat transport screen (survival = visible inhibition of Tat transport): hit compound 20 μM, NADH 4 mM, 37°C 30 min; for IC50: efficiency of NADH-dependent in vitro Tat transport of pre-SufI, IMVs A280 = 5
Chain of E. coli Tat machinery (IMVs containing overproduced TatABC) (P69423 2-258): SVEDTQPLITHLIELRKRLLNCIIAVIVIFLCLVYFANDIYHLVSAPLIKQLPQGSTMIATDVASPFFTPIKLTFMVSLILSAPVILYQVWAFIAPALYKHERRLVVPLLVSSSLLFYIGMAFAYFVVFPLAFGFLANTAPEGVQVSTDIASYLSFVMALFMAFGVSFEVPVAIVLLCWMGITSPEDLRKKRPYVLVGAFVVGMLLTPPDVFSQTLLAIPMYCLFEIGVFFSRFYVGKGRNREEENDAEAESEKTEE
Chain of E. coli Tat machinery (IMVs containing overproduced TatABC) (P69425 whole entry): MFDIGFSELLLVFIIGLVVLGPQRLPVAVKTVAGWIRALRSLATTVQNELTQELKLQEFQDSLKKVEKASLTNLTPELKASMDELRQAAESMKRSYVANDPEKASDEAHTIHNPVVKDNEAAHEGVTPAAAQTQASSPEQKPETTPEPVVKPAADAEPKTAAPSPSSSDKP
Chain of E. coli Tat machinery (IMVs containing overproduced TatABC) (P69428 whole entry): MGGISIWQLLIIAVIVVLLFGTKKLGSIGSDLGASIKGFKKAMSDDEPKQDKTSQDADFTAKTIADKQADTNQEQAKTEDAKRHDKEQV
Procedure: To directly test for inhibition of Tat transport, a gel-based in vitro Tat transport assay was performed using pre-SufI, an authentic Tat precursor protein [7]. In short, this assay consists of incubating a Tat substrate and a Δψ-generating energy source with inverted membrane vesicles (IMVs) containing overproduced TatABC, digesting remaining external protein with a protease, and then analyzing via SDS-PAGE. This assay was run twice using NADH and ATP (if warranted) as energy sources to generate the necessary Δψ. NADH generates a Δψ using respiratory proteins (i.e., the NADH dehydrogenase and cytochrome bo3 ubiquinol oxidase complexes) and ATP generates a Δψ by reversal of ATP synthase. A true Tat inhibitor would survive both assays. In contrast, a respiration inhibitor is expected to reduce Tat transport when only one of the two energy sources is used (except for an ionophore).
Fig 8 Effect of Hits from the Local HTS on In Vitro Tat Transport. (A) Tat transport assays of pre-SufI using NADH to generate a Δψ. Inverted membrane vesicles (IMVs; A280 = 5.0), the fluorescent substrate pre-SufI-IAC^Atto565 (90 nM), and NADH (4 mM) were incubated at 37°C for 30 min with DMSO (control) or with hit compound (20 μM). Samples were treated with the protease proteinase K, run on SDS-PAGE, and analyzed by in-gel fluorescence imaging. Assays were run in duplicate. Band intensity corresponds to the amount of protein transported into the IMV lumen. The following 7 compounds survived this screen: 1^JS, 51^JS, 55^JS, 111^JS, 181^JS, 202^JS, and 140^JS (boxed in red). (B) Tat transport assays of pre-SufI using ATP to generate a Δψ. All 7 compounds surviving the screen in (A) were tested using a Tat transport assay performed identically to those in (A) except that ATP (1 mM) was used in place of NADH. Compound 55^JS was eliminated by this assay—the other 6 compounds survived (boxed in red). (C) Chemical structure of compound 55^JS, N-(4,7-Dioxo-4,7-dihydro-2,1,3-benzoxadiazol-5-yl)acetamide.
(§1) Isolation of inverted membrane vesicles (IMVs), Western blot analyses and purification of pre-SufI-IAC were performed as described previously. Western blots were performed using rabbit anti-mCherry antibodies (1:10,000 dilution) in the presence of 0.1% Triton X-100 and 0.1% Tween 20. The pre-SufI-IAC protein was labeled with Atto565 maleimide, and the resultant fluorescent protein, pre-SufI-IAC^Atto565, was used as a substrate for the in vitro Tat transport assays (A280 = 5.0), as described previously. The presence of a Δψ was determined by measuring oxonol VI fluorescence in presence of Tat^+ IMVs (A280 = 0.5), as described previously, except that the translocation buffer lacked BSA. Steady-state fluorescence spectra and fluorescence intensities of whole cells producing mCherry proteins were determined with an SLM-8100 spectrofluorometer.
(§2) Supplementary file pone.0149659.s003.tiff: S3 Fig IC50's for Hit Compound 181^JS. (A) The total cellular mCherry fluorescence (live cell assay; n = 1), (B) the in vitro NADH-dependent Tat transport efficiency of pre-SufI (n = 1), and (C) the maximum transmembrane electrical potential gradient (n = 1) were measured for a range of concentrations of compound 181^JS (S2E Fig). (D) SDS-PAGE gel showing in-gel fluorescence data used in (B). For (A), cells expressing spTorA-mCherry-SsrA were grown under Tat^++ conditions in a 384-well plate in the presence of 0, 0.08, 0.15, 0.3, 0.63, 1.25, 2.5, 5, 10, 20, or 40 μM compound 181^JS, as described for the HTS assay (see Methods). For (B) and (C), IMVs were incubated with the same concentrations of compound 181^JS prior to initiation of Tat transport and Δψ generation by the addition of NADH, as described previously. The red curves are best-fits using y = d + (100-d)/(1+(x/IC50)^b), where b is a slope factor and d is the high concentration asymptote. (TIFF) Click here for additional data file.

[2] = tested on: electrical field gradient (Δψ) across IMVs; assay: Δψ assay (oxonol VI fluorescence with IMVs); assay type: biochemical, Escherichia coli; settings: for IC50: electrical field gradient, IMVs A280 = 0.5, NADH
Procedure: Hit compounds surviving the in vitro Tat transport assay screens could be general Δψ inhibitors (ionophores), as both NADH and ATP generate the Δψ necessary for Tat transport. Since our current assay to measure Δψ requires ~20 times more test compound than the Tat transport assays, we reserved this assay for last. The presence of a Δψ was determined by measuring oxonol VI fluorescence. For all 8 hit compounds that survived initial secondary screening, we tested their dose dependent effect on the Δψ, on NADH-dependent in vitro Tat transport efficiency, and on the fluorescence signal recovered from our primary HTS assay (live cell assay). […] Out of 22 independent assays by three different people, compound 18^NIH inhibited Tat transport 12 times. The conflicting results seem more likely to arise from differences in IMV preparations rather than decomposition of or impurities in the samples of compound 18^NIH.
as §1, §2

Cc1ccc(S(=O)(=O)/C=C/C#N)cc1 [Bay 11–7082]
effect on in vitro E. coli Tat transport [1]: neither compound affected; also recorded: do not inhibit

O=[N+]([O-])c1ccc(O)c(-c2cccs2)c1 [Compound 202, 4-nitro-2-thiophen-2-ylphenol]
outcome of NADH-dependent in vitro Tat transport screen (survival = visible inhibition of Tat transport) [1]: survived
IC50 [2]: 3000 nM

N#CC(C#N)=NNc1ccccc1Br [Compound 1, [(2-bromophenyl)hydrazono]malononitrile]
outcome of NADH-dependent in vitro Tat transport screen (survival = visible inhibition of Tat transport) [1]: survived
IC50 [2]: 1000 nM

FC(F)(F)c1cccc(-c2cccc3cnccc23)c1 [Compound 140, 5-[3-(trifluoromethyl)phenyl]isoquinoline]
outcome of NADH-dependent in vitro Tat transport screen (survival = visible inhibition of Tat transport) [1]: survived
IC50 [2]: 1000 nM

Fc1nc(F)c(F)c(NNC(=S)Nc2cccc(C(F)(F)F)c2)c1F [Compound 111, 1-[(2,3,5,6-tetrafluoropyridin-4-yl)amino]-3-[(3-trifluoromethyl)phenyl]thiourea]
IC50 [1]: 700 nM
outcome of NADH-dependent in vitro Tat transport screen (survival = visible inhibition of Tat transport) [1]: survived
IC50 [2]: 100 nM

O=[N+]([O-])c1cc([N+](=O)[O-])c2ccccc2c1Cl [Compound 51, 1-chloro-2,4-dinitronaphthalene]
outcome of NADH-dependent in vitro Tat transport screen (survival = visible inhibition of Tat transport) [1]: survived
IC50 [2]: 8000 nM

Oc1cc(Cl)ccc1Oc1ccc(Cl)cc1Cl [Compound 18^NIH, 5-Chloro-2-(2,4-dichlorophenoxy)phenol]
effect on the Δψ across IMVs [2]: did not collapse the Δψ
IC50 [2]: > 100000 nM

N#CC1c2ccccc2-n2nncc2CN1Cc1cc(Cl)cc(Cl)c1 (stereo not shown) [21^NIH, 5-[(3,5-dichlorophenyl)methyl]-4,6-dihydrotriazolo[1,5-a][1, 4]benzodiazepine-6-carbonitrile]
IC50 [1]: 50000 nM
IC50 [2]: 4000 nM

O=C(Nc1cccc(C(F)(F)F)c1)Nc1ncc([N+](=O)[O-])s1 [Compound 181^JS, 1-(5-nitro-1,3-thiazol-2-yl)-3-[3-(trifluoromethyl)phenyl]urea]
outcome of NADH-dependent in vitro Tat transport screen (survival = visible inhibition of Tat transport) [1]: survived
IC50 [2]: 400 nM

O=C1C=CC(=O)N1c1ccccc1 [N-phenylmaleimide]
effect on in vitro E. coli Tat transport [1]: neither compound affected; also recorded: do not inhibit

From paper PMC4764201, “High Throughput Screen for Escherichia coli Twin Arginine Translocation (Tat) Inhibitors” (PLoS ONE, 2016)
